Data published in US20250059164A1, “IRAK DEGRADERS AND USES THEREOF” (Kymera Therapeutics, Inc., priority 2023, published 2025).

Key:
IRAK4 = biological target: T1, IRAK4 (Homo sapiens, UniProt Q9NWZ3); assay: IRAK4 MSD degradation in OCI-LY10; format: cell-based; conditions: OCI-LY10 cells, 24 hrs, Meso Scale Discovery
T1 construct: endogenous in cells; host or cells: OCI-LY10
T1 sequence (Q9NWZ3 1-460): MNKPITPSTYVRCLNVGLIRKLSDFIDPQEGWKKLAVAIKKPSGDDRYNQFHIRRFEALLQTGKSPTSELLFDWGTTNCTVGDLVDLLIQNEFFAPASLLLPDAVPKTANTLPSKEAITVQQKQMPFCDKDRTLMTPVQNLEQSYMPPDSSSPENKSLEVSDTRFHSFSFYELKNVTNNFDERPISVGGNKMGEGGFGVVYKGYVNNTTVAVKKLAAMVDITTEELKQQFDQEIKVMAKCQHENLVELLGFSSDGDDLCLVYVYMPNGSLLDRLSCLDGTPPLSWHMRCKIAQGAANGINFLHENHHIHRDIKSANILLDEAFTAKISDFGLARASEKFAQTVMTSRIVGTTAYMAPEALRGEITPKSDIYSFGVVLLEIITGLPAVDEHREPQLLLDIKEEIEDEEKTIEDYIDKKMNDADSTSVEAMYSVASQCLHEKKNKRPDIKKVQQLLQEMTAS
Summary of the method: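 OCI-LY10 cells treated 4 to 24 hours at 37° C. with 8-dose 1:3 series, top 1 to 10 μM. IRAK4 in lysates quantified by MSD sandwich immunoassay (mouse capture, rabbit detection, SULFO-TAG anti-rabbit). DC50 from three-parameter logistic fit.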

[1] = Rodent pharmacokinetics (rat PK); format: in vivo; conditions: po, dosed intravenously or orally by gavage, plasma, read-out: F % (bioavailability)
Summary of the method: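 Rats were dosed IV or by oral gavage, with jugular blood taken predose and at 5 min (IV only), 15, 30 min and 1, 2, 4, 8, 24 h. Plasma was separated by centrifugation at 4 °C. Oral bioavailability (F %) is coded A (≥5%) or B (≤5%).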

Row | SMILES | DC50 (IRAK4) | bioavailability [1]
1 | Cn1c(=O)n(C2CCC(=O)NC2=O)c2cccc(N3CC(COC[C@H]4CC[C@H](n5cc6cc(NC(=O)c7cccc(C(F)(F)F)c7)ncc6n5)CC4)C3)c21 (some centres unmarked) [I-269] | > 0.2 µM | ≤ 5%
2 | COc1cc2nn([C@H]3CC[C@H](COCC4CN(c5cccc6c5n(C)c(=O)n6C5CCC(=O)NC5=O)C4)CC3)cc2cc1NC(=O)c1cncc(C#N)c1 (some centres unmarked) [I-270] | 0.01 to 0.1 µM | ≤ 5%
3 | CC(C)Oc1cc2nn([C@H]3CC[C@H](CN4CC[C@@H](c5cccc6c5n(C)c(=O)n6C5CCC(=O)NC5=O)[C@H](F)C4)CC3)cc2cc1NC(=O)c1cncc(C#N)c1 (some centres unmarked) [I-275] | < 0.01 µM | ≤ 5%
4 | O=C1CCN(c2cc(C(=O)N3CCN(C[C@H]4CC[C@H](n5cc6cc(NC(=O)c7cncc(C(F)(F)F)n7)ccc6n5)CC4)CC3)ncc2Cl)C(=O)N1 [I-305] | > 0.2 µM | ≤ 5%
5 | Cc1cncc(C(=O)Nc2ccc3nn([C@H]4CC[C@H](CN5CC[C@@H](c6cccc7c6n(C)c(=O)n7C6CCC(=O)NC6=O)[C@H](F)C5)CC4)cc3c2)n1 (some centres unmarked) [I-307] | < 0.01 µM | ≤ 5%
6 | Cc1cncc(C(=O)Nc2cc3cn([C@H]4CC[C@H](CN5CC[C@@H](c6cccc7c6n(C)c(=O)n7C6CCC(=O)NC6=O)[C@H](F)C5)CC4)nc3cn2)n1 (some centres unmarked) [I-310] | < 0.01 µM | ≤ 5%
7 | Cc1nn(C2CCC(=O)NC2=O)c2cccc(N3CCC4(CCN(C[C@H]5CC[C@H](n6cc7cc(NC(=O)c8cncc(C#N)c8)c(C(C)(C)O)cc7n6)CC5)CC4(F)F)CC3)c12 (some centres unmarked) [I-312] | 0.01 to 0.1 µM | ≤ 5%
8 | Cn1c(=O)n(C2CCC(=O)NC2=O)c2cccc([C@@H]3CCN(C[C@H]4CC[C@H](n5cc6cc(NC(=O)c7cncc(C(F)F)n7)ncc6n5)CC4)C[C@H]3F)c21 (some centres unmarked) [I-321] | < 0.01 µM | ≤ 5%
9 | Cn1c(=O)n(C2CCC(=O)NC2=O)c2cccc([C@@H]3CCN(C[C@H]4CC[C@H](n5cc6cc(NC(=O)c7cncc(C(C)(C)C)n7)ncc6n5)CC4)C[C@H]3F)c21 (some centres unmarked) [I-322] | < 0.01 µM | ≤ 5%
10 | Cn1c(=O)n(C2CCC(=O)NC2=O)c2cccc([C@@H]3CCN(C[C@H]4CC[C@H](n5cc6cc(NC(=O)c7cncc(C(F)F)n7)ccc6n5)CC4)C[C@H]3F)c21 (some centres unmarked) [I-323] | < 0.01 µM | ≤ 5%
11 | Cn1c(=O)n(C2CCC(=O)NC2=O)c2cccc([C@@H]3CCN(C[C@H]4CC[C@H](n5cc6cc(NC(=O)c7cncc(C(C)(C)C)n7)ccc6n5)CC4)C[C@H]3F)c21 (some centres unmarked) [I-324] | < 0.01 µM | ≤ 5%
12 | Cn1c(=O)n(C2CCC(=O)NC2=O)c2cccc(N3CC4(CCN(C[C@H]5CC[C@H](n6cc7cc(NC(=O)c8cncc(C(F)(F)F)n8)c(C(C)(C)O)cc7n6)CC5)CC4(F)F)C3)c21 (some centres unmarked) [I-326] | < 0.01 µM | ≥ 5%
13 | Cn1c(=O)n(C2CCC(=O)NC2=O)c2cccc([C@@H]3CCN(C[C@H]4CC[C@H](n5cc6cc(NC(=O)c7cncc(OC(F)F)n7)ncc6n5)CC4)C[C@H]3F)c21 (some centres unmarked) [I-337] | < 0.01 µM | ≤ 5%
14 | Cn1c(=O)n(C2CCC(=O)NC2=O)c2cccc([C@@H]3CCN(C[C@H]4CC[C@H](n5cc6cc(NC(=O)c7cncc(C8CC8)n7)ncc6n5)CC4)C[C@H]3F)c21 (some centres unmarked) [I-338] | < 0.01 µM | ≤ 5%
15 | Cn1c(=O)n(C2CCC(=O)NC2=O)c2cccc([C@@H]3CCN(C[C@H]4CC[C@H](n5cc6cc(NC(=O)c7cncc(OC(F)F)n7)ccc6n5)CC4)C[C@H]3F)c21 (some centres unmarked) [I-339] | < 0.01 µM | ≤ 5%
16 | Cc1cncc(C(=O)Nc2cc3cn([C@H]4CC[C@H](CN5CCC6(CN(c7cccc8c7n(C)c(=O)n8C7CCC(=O)NC7=O)C6)C(F)(F)C5)CC4)nc3cc2C(C)(C)O)c1 (some centres unmarked) [I-342] | < 0.01 µM | ≤ 5%
17 | COc1ccc2c(c1[C@@H]1CCN(C[C@H]3CC[C@H](n4cc5cc(NC(=O)c6cncc(C(F)(F)F)n6)ccc5n4)CC3)C[C@H]1F)n(C)c(=O)n2C1CCC(=O)NC1=O (some centres unmarked) [I-347] | < 0.01 µM | ≥ 5%
18 | COc1ccc2c(c1[C@H]1CCN(C[C@H]3CC[C@H](n4cc5cc(NC(=O)c6cncc(C(F)(F)F)n6)ccc5n4)CC3)C[C@@H]1F)n(C)c(=O)n2C1CCC(=O)NC1=O (some centres unmarked) [I-352] | < 0.01 µM | ≤ 5%
19 | Cc1cncc(C(=O)Nc2cc3cn([C@H]4CC[C@H](CN5CCC6(CCN(c7cccc8c7n(C)c(=O)n8C7CCC(=O)NC7=O)CC6)C(F)(F)C5)CC4)nc3cc2C(C)(C)O)c1 (some centres unmarked) [I-361] | < 0.01 µM | ≤ 5%

Other lines, results leading:

Row | DC50 (IRAK4) | bioavailability [1] | SMILES
20 | < 0.01 µM | ≤ 5% | Cn1c(=O)n(C2CCC(=O)NC2=O)c2cccc([C@@H]3CCN(C[C@H]4CC[C@H](c5cn6cc(NC(=O)c7cccc(C(F)(F)F)n7)c(C(C)(C)O)cc6n5)CC4)C[C@H]3F)c21 (some centres unmarked) [I-268]
21 | < 0.01 µM | ≤ 5% | COc1cc2nn([C@H]3CC[C@H](CN4CC[C@@H](c5cccc6c5n(C)c(=O)n6C5CCC(=O)NC5=O)[C@H](F)C4)CC3)cc2cc1NC(=O)c1cncc(C(F)F)c1 (some centres unmarked) [I-271]
22 | > 0.2 µM | ≤ 5% | Cc1cc2nn([C@H]3CC[C@H](CN4CC[C@@H](c5cccc6c5n(C)c(=O)n6C5CCC(=O)NC5=O)[C@H](F)C4)CC3)cc2cc1NC(=O)c1cncc(C#N)c1 (some centres unmarked) [I-272]
23 | < 0.01 µM | ≤ 5% | Cn1c(=O)n(C2CCC(=O)NC2=O)c2cccc([C@@H]3CCN(C[C@H]4CC[C@H](c5cn6cc(NC(=O)c7cccc(C(F)(F)F)c7)ccc6n5)CC4)C[C@H]3F)c21 (some centres unmarked) [I-274]
24 | < 0.01 µM | ≤ 5% | Cn1c(=O)n(C2CCC(=O)NC2=O)c2cccc([C@@H]3CCN(C[C@H]4CC[C@H](c5cn6cc(NC(=O)c7cccc(C(F)(F)F)c7)c(C(C)(C)O)cc6n5)CC4)C[C@H]3F)c21 (some centres unmarked) [I-276]
25 | < 0.01 µM | ≤ 5% | COc1cc2nc([C@H]3CC[C@H](CN4CC[C@@H](c5cccc6c5n(C)c(=O)n6C5CCC(=O)NC5=O)[C@H](F)C4)CC3)cn2cc1NC(=O)c1cccc(C(F)(F)F)c1 (some centres unmarked) [I-278]
26 | < 0.01 µM | ≤ 5% | COc1cc2nn([C@H]3CC[C@H](CN4CC[C@@H](c5cccc6c5n(C)c(=O)n6C5CCC(=O)NC5=O)[C@H](F)C4)CC3)cc2cc1C(=O)Nc1cncc(C(F)(F)F)c1 (some centres unmarked) [I-283]
27 | 0.01 to 0.1 µM | ≤ 5% | COc1cc2nc([C@H]3CC[C@H](CN4CC[C@@H](c5cccc6c5n(C)c(=O)n6C5CCC(=O)NC5=O)[C@H](F)C4)CC3)oc2cc1NC(=O)c1cncc(C(F)(F)F)n1 (some centres unmarked) [I-284]
28 | < 0.01 µM | ≤ 5% | Cc1cc2nn([C@H]3CC[C@H](CN4CC[C@@H](c5cccc6c5n(C)c(=O)n6C5CCC(=O)NC5=O)[C@H](F)C4)CC3)cc2cc1NC(=O)c1cncc(C(F)(F)F)n1 (some centres unmarked) [I-286]
29 | < 0.01 µM | ≥ 5% | Cn1c(=O)n(C2CCC(=O)NC2=O)c2cccc([C@@H]3CCN(C[C@H]4CC[C@H](c5nc6cc(C(C)(C)O)c(NC(=O)c7cncc(C(F)(F)F)n7)cc6o5)CC4)C[C@H]3F)c21 (some centres unmarked) [I-288]
30 | < 0.01 µM | ≤ 5% | COc1cc2nn([C@H]3CC[C@H](CN4CC[C@@H](c5cccc6c5n(C)c(=O)n6C5CCC(=O)NC5=O)[C@H](F)C4)CC3)cc2cc1C(=O)Nc1cncc(C(F)(F)F)n1 (some centres unmarked) [I-290]
31 | < 0.01 µM | ≤ 5% | Cn1c(=O)n(C2CCC(=O)NC2=O)c2cccc([C@@H]3CCN(C[C@H]4CC[C@H](n5cc6cc(NC(=O)c7cncc(C(F)(F)F)n7)c(F)cc6n5)CC4)C[C@H]3F)c21 (some centres unmarked) [I-296]
32 | < 0.01 µM | ≤ 5% | COc1cc2nc([C@H]3CC[C@H](CN4CC[C@@H](c5cccc6c5n(C)c(=O)n6C5CCC(=O)NC5=O)[C@H](F)C4)CC3)cn2cc1NC(=O)c1cncc(C(F)(F)F)n1 (some centres unmarked) [I-308]
33 | < 0.01 µM | ≤ 5% | Cn1c(=O)n(C2CCC(=O)NC2=O)c2cccc([C@@H]3CCN(C[C@H]4CC[C@H](n5cc6cc(NC(=O)c7cncc(C8CC8)n7)ccc6n5)CC4)C[C@H]3F)c21 (some centres unmarked) [I-311]
34 | < 0.01 µM | ≤ 5% | Cn1c(=O)n(C2CCC(=O)NC2=O)c2cccc([C@@H]3CCN(C[C@H]4CC[C@H](c5cn6cc(NC(=O)c7cncc(C(F)(F)F)n7)c(C(C)(C)O)cc6n5)CC4)C[C@H]3F)c21 (some centres unmarked) [I-343]
35 | < 0.01 µM | ≤ 5% | Cn1c(=O)n(C2CCC(=O)NC2=O)c2cccc([C@@H]3CCN(C[C@H]4CC[C@H](n5cc6cc(NC(=O)c7cncc(C(F)(F)F)n7)c(S(C)(=O)=O)cc6n5)CC4)C[C@H]3F)c21 (some centres unmarked) [I-346]
36 | < 0.01 µM | ≤ 5% | COc1cc(NC(=O)c2cncc(C(F)(F)F)n2)cc2cn([C@H]3CC[C@H](CN4CC[C@@H](c5cccc6c5n(C)c(=O)n6C5CCC(=O)NC5=O)[C@H](F)C4)CC3)nc12 (some centres unmarked) [I-355]
37 | < 0.01 µM | ≤ 5% | Cn1c(=O)n(C2CCC(=O)NC2=O)c2cccc([C@@H]3CCN(C[C@H]4CC[C@H](n5cc6cc(NC(=O)c7cncc(C(F)(F)F)n7)cc(F)c6n5)CC4)C[C@H]3F)c21 (some centres unmarked) [I-356]
